Active and inactive are the calls of the source. No cut-off for these calls is given here.
Columns and labels:
[1] = Oral bioavailability in rat; assay type: ADME, organism-based; settings: in vivo
Mus musculus [2] = assay: Antinociceptive effect in ip dosed mouse assessed as reduction of licking time in late phase administered before 30 mins of formalin administration; settings: 0.5 h
Mus musculus [3] = assay: Antinociceptive effect in ip dosed mouse assessed as reduction of licking time in early phase administered before 30 mins of formalin administration; settings: 0.5 h
Mus musculus [4] = assay: Antinociceptive effect in po dosed mouse assessed as reduction of licking time in late phase by formalin test; assay type: functional
Mus musculus [5] = assay: Antinociceptive effect in mouse assessed as reduction of licking time in late phase administered at 0.1 mg/kg, ip before 10 mins of formalin administration; assay type: functional; parameters: scale not given: the % may be the effect or the level left; settings: route intraperitoneal
Glutamate NMDA receptor = assay: Displacement of [3H]glycine from NMDA receptor in rat cerebral cortex membrane; assay type: cell membranes
[6] = Oral bioavailability in dog at 3 mg/kg, po; assay type: ADME, organism-based, Canis lupus familiaris; settings: in vivo
[7] = Plasma clearance in rat at 1 mg/kg, iv or 3 mg/kg, po; assay type: ADME, organism-based
[8] = Half life in rat at 1 mg/kg, iv or 3 mg/kg, po; assay type: ADME, organism-based; settings: in vivo
[9] = Half life in dog at 1 mg/kg, iv or 3 mg/kg, po; assay type: ADME, organism-based, Canis lupus familiaris; settings: in vivo
[10] = Oral bioavailability in rat at 3 mg/kg, po; assay type: ADME, organism-based; settings: in vivo
[11] = Plasma clearance in dog at 1 mg/kg, iv or 3 mg/kg, po; assay type: ADME, organism-based, Canis lupus familiaris
Rattus norvegicus [12] = assay: Analgesic effect in po dosed CCI rat model assessed as reduction of thermal hyperalgesia after 1 hr; assay type: functional
Rattus norvegicus [13] = organism: Rattus norvegicus; assay: Inhibition of windup in rat spinal cord at 10 uM; assay type: functional, organism-based

Question: With O=C([O-])C1C/C(=C2/CCN(c3ccccc3)C2=O)c2ccc(Cl)cc2N1.[Na+] (stereo unspecified) as the molecule, how does the bioavailability [1] read?
Answer: 76%

Question: What does the source list for CN1CC[C@]23c4c5ccc(O)c4O[C@H]2[C@@H](O)C=C[C@H]3[C@H]1C5 [MORPHINE]?
Answer: ED50 (Mus musculus [2]): 0.56 mg/kg; ED50 (Mus musculus [3]): 0.73 mg/kg

Question: Which results are given for C[C@]12N[C@H](Cc3ccccc31)c1ccccc12 [DIZOCILPINE]?
Answer: ED50 (Mus musculus [4]): 0.1 mg/kg; Activity (Mus musculus [5]): 50%

Question: Which “Log Ki” value (Glutamate NMDA receptor) does the source give for O=C([O-])C1C/C(=C2/CCCN(c3ccccc3)C2=O)c2ccc(Cl)cc2N1.[Na+] (stereo unspecified) here?
Answer: -5.71

Question: Which “Log Ki” value (Glutamate NMDA receptor) does the source give for O=C([O-])C1C/C(=C2/NC(=O)N(c3ccccc3)C2=O)c2ccc(Cl)cc2N1.[Na+] (stereo unspecified) here?
Answer: -7.8

Question: Which bioavailability [6] does the source give for O=C(/C=C1\CC(C(=O)[O-])Nc2cc(Cl)ccc21)Nc1ccccc1.[Na+] (stereo unspecified) here?
Answer: 64%

Question: And the clearance [7]?
Answer: 3.5 mL/min/kg

Question: And the half-life [8]?
Answer: 1.4 h

Question: What about the half-life [9] of the same molecule?
Answer: 2.4 h

Question: What about the bioavailability [10] of the same molecule?
Answer: 85%

Question: What about the clearance [11] of the same molecule?
Answer: 1.4 mL/min/kg

Question: What about the “Log Ki” value (Glutamate NMDA receptor) of the same molecule?
Answer: -7.42

Question: With O=C([O-])[C@H]1C/C(=C2/CCN(c3ccccc3)C2=O)c2ccc(Cl)cc2N1.[Na+] as the molecule, how does the ED50 (Rattus norvegicus [12]) read?
Answer: 0.14 mg/kg

Question: And the ED50 (Mus musculus [4])?
Answer: 0.14 mg/kg

Question: What about the Activity (Rattus norvegicus [13]) of the same molecule?
Answer: Active

Question: For O=C([O-])c1[nH]c2cc(Cl)cc(Cl)c2c1/C=C1\CCN(c2ccccc2)C1=O.[Na+], which ED50 (Rattus norvegicus [12]) is on record?
Answer: 2.95 mg/kg

Question: And the ED50 (Mus musculus [4])?
Answer: 0.6 mg/kg

Question: And the “Log Ki” value (Glutamate NMDA receptor)?
Answer: -7.56

Question: Which “Log Ki” value (Glutamate NMDA receptor) does the source give for O=C([O-])C1C/C(=C2/CC(=O)N(c3ccccc3)C2=O)c2ccc(Cl)cc2N1.[Na+] (stereo unspecified) here?
Answer: -5.64

Source: ChEMBL document CHEMBL1148845, “Chiral tetrahydroquinoline derivatives as potent anti-hyperalgesic agents in animal models of sustained inflammation and chronic neuropathic pain” (Bioorg Med Chem Lett, 2007)
